pIC50: −log10 of the molar value.
Test system: 349418-098-R-PDC complex spheroid viability
Test: Anticancer human tumor 349418-098-R-PDC patient-derived lung adenocarcinoma cell line growth inhibition [RAS]
Conditions: for pIC50: curve of first compound; for viability, T/C: stronger effect = lower value
Method in brief: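 Tumour cells grown as complex spheroids with HUVEC endothelial cells and mesenchymal stem cells, treated with RAS pathway inhibitor combinations. Each agent spans half-log steps from near clinical Cmax, or 10 microM where Cmax is unknown.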

[1] = second compound 0.0316 µM, first compound 0.0316 µM
[2] = second compound 0.0316 µM, first compound 0.1 µM
[3] = second compound 0.0316 µM, first compound 0.316 µM
[4] = second compound 0.0316 µM, first compound 1 µM
[5] = second compound 0.0316 µM, first compound 3.16 µM
[6] = second compound 0.0316 µM, first compound 10 µM
[7] = second compound 0.1 µM, first compound 0.0316 µM
[8] = second compound 0.1 µM, first compound 0.1 µM
[9] = second compound 0.1 µM, first compound 0.316 µM
[10] = second compound 0.1 µM, first compound 1 µM
[11] = second compound 0.1 µM, first compound 3.16 µM
[12] = second compound 0.1 µM, first compound 10 µM
[13] = second compound 0.316 µM, first compound 0.0316 µM
[14] = second compound 0.316 µM, first compound 0.1 µM
[15] = second compound 0.316 µM, first compound 0.316 µM
[16] = second compound 0.316 µM, first compound 1 µM
[17] = second compound 0.316 µM, first compound 3.16 µM
[18] = second compound 0.316 µM, first compound 10 µM
[19] = second compound 1 µM, first compound 0.0316 µM
[20] = second compound 1 µM, first compound 0.1 µM
[21] = second compound 1 µM, first compound 0.316 µM
[22] = second compound 1 µM, first compound 1 µM
[23] = second compound 1 µM, first compound 3.16 µM
[24] = second compound 1 µM, first compound 10 µM
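Further: spheroids exposed to compound for seven days before viability readout.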

`CC1(O)CCCC1n1c(=O)c(C(F)F)cc2cnc(NC3CCN(S(C)(=O)=O)CC3)nc21` (stereo unspecified) + C#Cc1c(F)ccc2cc(O)cc(-c3ncc4c(N5CC6CCC(C5)N6)nc(OCC56CCCN5CC(F)C6)nc4c3F)c12 showed a pIC50 (second compound 0.0316 µM) of 7.18, a pIC50 (second compound 0.1 µM) of 7.09 and a pIC50 (second compound 0.316 µM) of 7.06. For the same compound, the pIC50 (second compound 1 µM) was 7.28, the pIC50 (second compound 3.16 µM) was 7.10 and the pIC50 (second compound 10 µM) was over 7.50. The viability, T/C [1] was 62.5%, the viability, T/C [2] was 43.8% and the viability, T/C [3] was 23%. The viability, T/C [4] was 27.6%, the viability, T/C [5] was 23.2% and the viability, T/C [6] was 3.27%. The viability, T/C [7] was 83.5%, the viability, T/C [8] was 41.3% and the viability, T/C [9] was 23.1%. The viability, T/C [10] was 16.2%, the viability, T/C [11] was 18.7% and the viability, T/C [12] was 3.67%. It also gave a viability, T/C [13] of 84.5%, a viability, T/C [14] of 41.7% and a viability, T/C [15] of 25.2%. The viability, T/C [16] was 25.8%, the viability, T/C [17] was 20.1% and the viability, T/C [18] was 3.12%. The viability, T/C [19] was 60.5%, the viability, T/C [20] was 35.9% and the viability, T/C [21] was 28.9%. For the same compound, the viability, T/C [22] was 26.5%, the viability, T/C [23] was 19.9% and the viability, T/C [24] was 4.34%. It also gave a viability, T/C (second compound 3.16 µM, first compound 0.0316 µM) of 67.6%, a viability, T/C (second compound 3.16 µM, first compound 0.1 µM) of 41.9% and a viability, T/C (second compound 3.16 µM, first compound 0.316 µM) of 29.9%. For the same compound, the viability, T/C (second compound 3.16 µM, first compound 1 µM) was 25%, the viability, T/C (second compound 3.16 µM, first compound 3.16 µM) was 25.5% and the viability, T/C (second compound 3.16 µM, first compound 10 µM) was 4.16%. For the same compound, the viability, T/C (second compound 10 µM, first compound 0.0316 µM) was 49.8%, the viability, T/C (second compound 10 µM, first compound 0.1 µM) was 12.9% and the viability, T/C (second compound 10 µM, first compound 0.316 µM) was 16.3%. For the same compound, the viability, T/C (second compound 10 µM, first compound 1 µM) was 14.4%, the viability, T/C (second compound 10 µM, first compound 3.16 µM) was 9.5% and the viability, T/C (second compound 10 µM, first compound 10 µM) was 1.44%.
For `CC(C)NCC(C(=O)N1CCN(c2ncnc3c2C(C)CC3O)CC1)c1ccc(Cl)cc1` (stereo unspecified) + C=CC(=O)N1CCN(c2nc(OCC3CCCN3C)nc3c(F)c(-c4nc(N)cc(C)c4C(F)(F)F)c(Cl)cc23)C(C)C1, the pIC50 (second compound 0.00316 µM) was 6.41, the pIC50 (second compound 0.01 µM) was 6.60 and the pIC50 (second compound 0.0316 µM) was 6.23. The pIC50 (second compound 0.1 µM) was 6.26, the pIC50 (second compound 0.316 µM) was 6.21 and the pIC50 (second compound 1 µM) was 6.26. It also gave a viability, T/C (second compound 0.00316 µM, first compound 0.0316 µM) of 88.2%, a viability, T/C (second compound 0.00316 µM, first compound 0.1 µM) of 86.6% and a viability, T/C (second compound 0.00316 µM, first compound 0.316 µM) of 53.7%. It also gave a viability, T/C (second compound 0.00316 µM, first compound 1 µM) of 24.3%, a viability, T/C (second compound 0.00316 µM, first compound 3.16 µM) of 17.2% and a viability, T/C (second compound 0.00316 µM, first compound 10 µM) of 7.89%. For the same compound, the viability, T/C (second compound 0.01 µM, first compound 0.0316 µM) was 102%, the viability, T/C (second compound 0.01 µM, first compound 0.1 µM) was 83.9% and the viability, T/C (second compound 0.01 µM, first compound 0.316 µM) was 39.3%. The viability, T/C (second compound 0.01 µM, first compound 1 µM) was 23.7%, the viability, T/C (second compound 0.01 µM, first compound 3.16 µM) was 15.9% and the viability, T/C (second compound 0.01 µM, first compound 10 µM) was 9.35%. It also gave a viability, T/C [1] of 78%, a viability, T/C [2] of 77.1% and a viability, T/C [3] of 81.2%. For the same compound, the viability, T/C [4] was 26.1%, the viability, T/C [5] was 22.7% and the viability, T/C [6] was 10%. For the same compound, the viability, T/C [7] was 70%, the viability, T/C [8] was 67.5% and the viability, T/C [9] was 67.6%. For the same compound, the viability, T/C [10] was 31.1%, the viability, T/C [11] was 16.1% and the viability, T/C [12] was 9.41%. The viability, T/C [13] was 66.8%, the viability, T/C [14] was 82.1% and the viability, T/C [15] was 76.3%. It also gave a viability, T/C [16] of 32.2%, a viability, T/C [17] of 24.5% and a viability, T/C [18] of 7.85%. For the same compound, the viability, T/C [19] was 72.8%, the viability, T/C [20] was 65.4% and the viability, T/C [21] was 71.8%. It also gave a viability, T/C [22] of 28.8%, a viability, T/C [23] of 25% and a viability, T/C [24] of 10.2%.
`C=CC(=O)N1CCN(c2nc(OCC3CCCN3C)nc3c(F)c(-c4nc(N)cc(C)c4C(F)(F)F)c(Cl)cc23)C(C)C1` (stereo unspecified) + CCn1c(-c2cc(N3CCN(C)CC3)cnc2C(C)OC)c2c3cc(ccc31)-c1csc(n1)CC(NC(=O)C1CC1C)C(=O)N1CCCC(N1)C(=O)OCC(C)(C)C2 showed a pIC50 (second compound 0.000949 µM) of under 6.00, a pIC50 (second compound 0.003 µM) of under 6.00 and a pIC50 (second compound 0.00949 µM) of under 6.00. For the same compound, the pIC50 (second compound 0.03 µM) was under 6.00, the pIC50 (second compound 0.0949 µM) was under 6.00 and the pIC50 (second compound 0.3 µM) was under 6.00. The viability, T/C (second compound 0.000949 µM, first compound 0.00316 µM) was 117%, the viability, T/C (second compound 0.000949 µM, first compound 0.01 µM) was 82.4% and the viability, T/C (second compound 0.000949 µM, first compound 0.0316 µM) was 109%. The viability, T/C (second compound 0.000949 µM, first compound 0.1 µM) was 101%, the viability, T/C (second compound 0.000949 µM, first compound 0.316 µM) was 96.8% and the viability, T/C (second compound 0.000949 µM, first compound 1 µM) was 101%. It also gave a viability, T/C (second compound 0.003 µM, first compound 0.00316 µM) of 90.3%, a viability, T/C (second compound 0.003 µM, first compound 0.01 µM) of 105% and a viability, T/C (second compound 0.003 µM, first compound 0.0316 µM) of 96.1%. The viability, T/C (second compound 0.003 µM, first compound 0.1 µM) was 86.7%, the viability, T/C (second compound 0.003 µM, first compound 0.316 µM) was 99.9% and the viability, T/C (second compound 0.003 µM, first compound 1 µM) was 82.2%. The viability, T/C (second compound 0.00949 µM, first compound 0.00316 µM) was 101%, the viability, T/C (second compound 0.00949 µM, first compound 0.01 µM) was 97.1% and the viability, T/C (second compound 0.00949 µM, first compound 0.0316 µM) was 104%. The viability, T/C (second compound 0.00949 µM, first compound 0.1 µM) was 98.9%, the viability, T/C (second compound 0.00949 µM, first compound 0.316 µM) was 106% and the viability, T/C (second compound 0.00949 µM, first compound 1 µM) was 80.7%. For the same compound, the viability, T/C (second compound 0.03 µM, first compound 0.00316 µM) was 99%, the viability, T/C (second compound 0.03 µM, first compound 0.01 µM) was 110% and the viability, T/C (second compound 0.03 µM, first compound 0.0316 µM) was 99.7%. It also gave a viability, T/C (second compound 0.03 µM, first compound 0.1 µM) of 102%, a viability, T/C (second compound 0.03 µM, first compound 0.316 µM) of 97.4% and a viability, T/C (second compound 0.03 µM, first compound 1 µM) of 82.3%. It also gave a viability, T/C (second compound 0.0949 µM, first compound 0.00316 µM) of 92.5%, a viability, T/C (second compound 0.0949 µM, first compound 0.01 µM) of 110% and a viability, T/C (second compound 0.0949 µM, first compound 0.0316 µM) of 112%. The viability, T/C (second compound 0.0949 µM, first compound 0.1 µM) was 112%, the viability, T/C (second compound 0.0949 µM, first compound 0.316 µM) was 113% and the viability, T/C (second compound 0.0949 µM, first compound 1 µM) was 102%. For the same compound, the viability, T/C (second compound 0.3 µM, first compound 0.00316 µM) was 110%, the viability, T/C (second compound 0.3 µM, first compound 0.01 µM) was 94.3% and the viability, T/C (second compound 0.3 µM, first compound 0.0316 µM) was 105%. It also gave a viability, T/C (second compound 0.3 µM, first compound 0.1 µM) of 109%, a viability, T/C (second compound 0.3 µM, first compound 0.316 µM) of 99.7% and a viability, T/C (second compound 0.3 µM, first compound 1 µM) of 90.5%.

From PubChem BioAssay AID2060904 (Molecular Pharmacology Branch, DTP, NCI, 2025)
